Experimental data published in patent publication US20260308158A1, “TARGETING RNAS ASSOCIATED WITH TAUOPATHIES WITH SMALL MOLECULES” (University of Florida Research Foundation, Incorporated, priority 2023, published 2026).

How the values were obtained:
[1] = system: MAPT exon 10 splicing in htau mice; test: MAPT exon 10 splicing in brain of htau mice (RT-qPCR); format: in vivo, human MAPT in htau mouse; details: 100 mg/kg p.o. q.o.d., 20 days
Protocol: (§1) RNA Isolation and Real-Time Quantitative PCR (RT-qPCR). HeLa cells were treated as described in the Luciferase Reporter assay to Study Exon 10 Alternative Splicing. LAN5 cells were seeded in 12-well plates at 0.2×10^6 cells per well, treated with compound or ASO, and incubated for 48 h. Compound stocks prepared in DMSO and ASO stocks prepared in water were diluted in growth medium and added to cells. Total RNA was extracted from cells and analyzed via RT-qPCR to determine levels of 3R and 4R tau mRNA. In brief, the cells were washed with 1×DPBS and then lysed in the well using 300 μL of Lysis Buffer provided in a Quick-RNA MiniPrep kit (Zymo Research), which was used to extract total RNA per the manufacturer's protocol including the on-column DNase I digestion. The concentration of total RNA was measured by NanoDrop 2000 (Thermo Fisher Scientific). Only samples with OD260/OD280>1.8 were carried forward for analysis. Reverse transcription (RT) was carried out on 200 ng of total RNA using a qScript cDNA synthesis kit (QuantaBio) in a total volume of 10 μL according to the manufacturer's protocol. An Applied Biosystems QS5 384-well PCR system was used to complete qPCR reactions with Power SYBR Green Master Mix (Life Technologies), 600 nM each primer (Table S3), 20 ng of cDNA (1 μL of the RT reaction), in a total volume of 33 μL. Technical triplicates (10 μL each) were aliquoted into 384-well qPCR plates (Applied biosystems, 4483285). Subsequent qPCR analysis was performed using an Applied Biosystems QS5 384-well PCR system (software v.1.3.0). 4R/3R ratio were analyzed using ΔΔCt method using Equation 2: […]
hTau Mice Studies. htau mice and WT mice (C57BL/6J) were purchased from Jackson Laboratories. htau mice were maintained in-house through breeding between htau+/− mice. Genotype was confirmed by PCR amplification as previously described.^18 Only homozygous mice were used in in vivo studies. Mice were randomly assigned to a treatment group, which were age- and gender-matched (n=X). […] During the treatment period, nesting activity was assessed, as describe in Nesting Activity below. […]

WT tau RNA duplex = test: NMR spectral analysis (WaterLOGSY, 1D, 2D NOESY) with WT tau duplex; format: binding
Protocol: Preparation of NMR Samples. Two duplex-forming oligoribonucleotides r (5′-[…]-3′ (SEQ ID NO: 3))+r(5′[…]-3′ (SEQ ID NO: 4)) were designed to mimic the stem of the tau wild type (WT) hairpin. Individual RNA oligonucleotides were combined in 400 μL of NMR Buffer [10 mM KH2PO4/K2HPO4, pH 6.0 and 0.5 mM EDTA] in H2O or 100% D2O with a final RNA duplex concentration of 15 μM for WaterLOGSY experiments, […] was added to 5% (v/v) to provide a lock signal. RNA samples were annealed by heating to 95° C. for 3 min, followed by slow cooling to room temperature before being added to Shigemi NMR tubes (Shigemi, Inc.). Compound of interest was added to a final compound: RNA molar ratio of 20.0 for WaterLOGSY experiments, 2.0 for 1D ^1H H2O experiments, and 1.5 for 2D ^1NOESY experiments.
NMR Spectroscopy. NMR spectra were acquired on Bruker Avance III 600 and 700 MHz spectrometers equipped with cryoprobes. WaterLOGSY spectra were acquired at 298 K, 1D NMR spectra of samples in 95% H2O/5% D2O were acquired at 283 K, and 2D NOESY spectra in 100% D2O were acquired at 308 K. For 1D spectra of samples in 95% H2O/5% D2O, an excitation sculpting sequence during acquisition suppressed the water signal. Proton chemical shifts were referenced internally to the frequency of water. WaterLOGSY and 1D ^1H spectra were processed using Bruker TopSpin and 2D NMR spectra were processed with NMRPipe^1 and assigned with SPARKY^2.

htau mice = test: Nesting activity, htau mice; format: in vivo, htau mouse; details: scale 1-5, 100 mg/kg p.o. q.o.d.
Protocol: Nesting Activity. From Day 1 to Day 20, mice were individually housed and nesting material from the previous day was removed. An intact 3.0 g nestlet was placed within each cage. Around 15 h later, the resulting nest was photographed for qualitative scoring, and the untorn nestlet was weighed if present. All nest images and weights were analyzed by a blinded individual and based on published criteria.^43 In brief, nesting is scored on a rating scale of 1-5 where if the nestlet is over 90% intact, it is given a nestlet score is 1 (Poor; FIG. 4C). When the nestlet is partially torn but >50% remains, the nestlet score is 2; a score of 3 is assigned when 50-90% of the nestlet is torn but spread around the cage and no identifiable nest site is found (Medium; FIG. 4C). When more than 90% of the nestlet is torn and the nest is identifiable but flat, the nestlet score is 4. When a near perfect nest is built and the wall is higher than the mouse's body, it is assigned a nestlet score of 5 (Good; FIG. 4C).

[2] = system: WT MAPT mini-gene (exon 10 splicing); test: 4R/3R MAPT mRNA by RT-qPCR, HeLa cells transfected with WT mini-gene; format: cell-based
Protocol: as §1, with “An Applied Biosystems QS5 384-well PCR system was used to complete qPCR reactions with Power SYBR Green Master Mix (Life Technologies), 600 nM each primer (Table S3), 20 ng of cDNA (1 μL of the RT reaction), in a total volume of 33 μL. Technical triplicates (10 μL each) were aliquoted into 384-well qPCR plates (Applied biosystems, 4483285). Subsequent qPCR analysis was performed using an Applied Biosystems QS5 384-well PCR system (software v.1.3.0).” left out

In the case of `COc1cc(N)ncc1CCCN(C)CCCn1cnc2c3ccccc3n(C)c2c1=O` [Compound 2, 3-(3-((3-(6-amino-4-methoxypyridin-3-yl)propyl)(methyl)amino)propyl)-5-methyl-3,5-dihydro-4H-pyrimido[5,4-b]indol-4-one], the “total human MAPT transcript levels” value ([1]; htau mice) is reported as “without alteration of total human MAPT transcript levels”, the “reduction of 4R/3R ratio” value ([1]; htau mice brain) is reported as 38±5% and the “reduction of PSI10” value ([1]; htau mice brain) is reported as 12±2%. For the same molecule, the “WaterLOGSY on addition of RNA” value (WT tau RNA duplex; 300 μM of 2, WT tau duplex, 298 K) was “changed the sign of the NOE, resulting in the appearance of negative peaks”, the “RNA 1D 1H (imino proton) spectrum on addition of compound” value (WT tau RNA duplex; 0.5-2.0 equivalents of 2) was “dose dependent changes in the RNA's 1D ^1H spectrum” and the “NOE between compound and RNA” value (WT tau RNA duplex; 2D NOESY, 400 ms mixing time, 35° C.) was “A single NOE was observed from H5/H6 of the compound to G17H1′”. For the same molecule, the “nesting score at Day 2” value (htau mice) was 2.6±1.1, the “nesting score at Day 20” value (htau mice) was 4.5±0.4 and the “PSI10 (PSI of MAPT exon 10) vs vehicle” value ([2]; HeLa, WT mini-gene) was “downregulated”. For the same molecule, the inhibition at 1.5 µM ([2]; Homo sapiens, 2 at 1.5 μM, 48 h, HeLa WT mini-gene, read-out: reduction of 4R/3R ratio (mRNA)) was 41 ± 3%.
